Measurements reported in ChEMBL document CHEMBL6078679, “Structure-Guided Discovery of Subtype Selective SIRT6 Inhibitors with a β-Carboline Skeleton for the Treatment of Breast Cancer” (J Med Chem, 2024).
pIC50: −log10 of the molar value.

How the values were obtained:
[1] = target: NAD-dependent protein deacylase sirtuin-5, mitochondrial (Homo sapiens, UniProt Q9NXA8); assay: Inhibition of SIRT5 (unknown origin) deacetylation activity using Boc-Lys(Ac)-AMC as substrate incubated for 2 hrs by BioTek microplate reader analysis
[2] = target: T1, NAD-dependent protein deacetylase sirtuin-1 (Homo sapiens, UniProt Q96EB6); assay: Inhibition of SIRT1 (unknown origin) deacetylation activity using Boc-Lys(Ac)-AMC as substrate incubated for 2 hrs by BioTek microplate reader analysis
T1 sequence (Q96EB6 whole entry): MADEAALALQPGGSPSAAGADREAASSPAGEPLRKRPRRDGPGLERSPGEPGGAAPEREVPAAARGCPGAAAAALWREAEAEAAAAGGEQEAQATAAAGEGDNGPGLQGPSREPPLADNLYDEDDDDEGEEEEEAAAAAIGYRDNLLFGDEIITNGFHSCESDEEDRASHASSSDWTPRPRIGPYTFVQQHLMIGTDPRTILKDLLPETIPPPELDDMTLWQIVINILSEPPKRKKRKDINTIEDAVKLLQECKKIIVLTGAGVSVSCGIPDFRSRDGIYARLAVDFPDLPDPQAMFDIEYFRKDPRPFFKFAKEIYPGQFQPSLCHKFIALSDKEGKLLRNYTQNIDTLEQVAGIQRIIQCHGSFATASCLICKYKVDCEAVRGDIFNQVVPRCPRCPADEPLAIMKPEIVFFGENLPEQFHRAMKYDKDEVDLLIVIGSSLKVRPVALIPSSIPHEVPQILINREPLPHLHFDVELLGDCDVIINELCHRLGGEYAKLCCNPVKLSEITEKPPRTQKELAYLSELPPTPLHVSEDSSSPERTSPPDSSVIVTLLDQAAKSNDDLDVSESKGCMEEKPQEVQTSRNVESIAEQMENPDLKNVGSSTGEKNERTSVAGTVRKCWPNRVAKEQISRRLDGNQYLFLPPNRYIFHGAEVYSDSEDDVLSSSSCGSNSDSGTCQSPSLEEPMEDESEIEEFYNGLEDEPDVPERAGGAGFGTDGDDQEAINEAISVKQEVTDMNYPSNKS

[3] = target: T2, NAD-dependent protein deacetylase sirtuin-2 (Homo sapiens, UniProt Q8IXJ6); assay: Inhibition of SIRT2 (unknown origin) deacetylation activity using Boc-Lys(Ac)-AMC as substrate incubated for 2 hrs by BioTek microplate reader analysis
T2 sequence (Q8IXJ6 whole entry): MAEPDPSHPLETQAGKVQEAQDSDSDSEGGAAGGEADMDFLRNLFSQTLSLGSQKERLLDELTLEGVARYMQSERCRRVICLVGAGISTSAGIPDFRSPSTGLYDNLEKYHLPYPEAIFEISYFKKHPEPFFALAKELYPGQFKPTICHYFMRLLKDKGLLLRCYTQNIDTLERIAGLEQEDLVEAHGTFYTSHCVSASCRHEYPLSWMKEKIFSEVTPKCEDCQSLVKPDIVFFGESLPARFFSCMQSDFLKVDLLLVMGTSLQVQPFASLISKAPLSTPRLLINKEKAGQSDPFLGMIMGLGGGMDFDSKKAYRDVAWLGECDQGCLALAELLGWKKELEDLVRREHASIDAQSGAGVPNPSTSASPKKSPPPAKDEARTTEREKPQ

[4] = target: T3, NAD-dependent protein lipoamidase sirtuin-4, mitochondrial (Homo sapiens, UniProt Q9Y6E7); assay: Inhibition of SIRT4 (unknown origin) deacetylation activity using Boc-Lys(Ac)-AMC as substrate incubated for 2 hrs by BioTek microplate reader analysis
T3 sequence (Q9Y6E7 whole entry): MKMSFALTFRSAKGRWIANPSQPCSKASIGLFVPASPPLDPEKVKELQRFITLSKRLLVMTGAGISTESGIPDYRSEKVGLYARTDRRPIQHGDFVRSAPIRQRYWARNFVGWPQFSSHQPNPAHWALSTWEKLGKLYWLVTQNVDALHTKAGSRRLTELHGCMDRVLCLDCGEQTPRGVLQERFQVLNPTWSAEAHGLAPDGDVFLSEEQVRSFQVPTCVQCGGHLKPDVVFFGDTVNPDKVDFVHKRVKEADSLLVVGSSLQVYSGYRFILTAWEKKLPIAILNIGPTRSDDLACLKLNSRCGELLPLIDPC

[5] = target: T4, NAD-dependent protein deacetylase sirtuin-7 (Homo sapiens, UniProt Q9NRC8); assay: Inhibition of SIRT7 (unknown origin) deacetylation activity using Boc-Lys(Ac)-AMC as substrate incubated for 2 hrs by BioTek microplate reader analysis
T4 sequence (Q9NRC8 whole entry): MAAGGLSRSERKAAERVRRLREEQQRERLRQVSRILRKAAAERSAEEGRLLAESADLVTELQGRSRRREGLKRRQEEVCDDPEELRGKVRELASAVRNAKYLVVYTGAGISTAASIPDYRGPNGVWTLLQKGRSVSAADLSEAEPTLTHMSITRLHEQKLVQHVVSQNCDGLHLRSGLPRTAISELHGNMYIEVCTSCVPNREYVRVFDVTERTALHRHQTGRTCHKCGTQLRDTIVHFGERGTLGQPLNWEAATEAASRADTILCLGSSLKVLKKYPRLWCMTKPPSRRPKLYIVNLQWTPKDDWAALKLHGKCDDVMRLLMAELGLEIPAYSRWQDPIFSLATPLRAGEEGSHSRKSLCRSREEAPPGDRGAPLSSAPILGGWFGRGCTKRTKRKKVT

[6] = target: T5, NAD-dependent protein deacetylase sirtuin-3, mitochondrial (Homo sapiens, UniProt Q9NTG7); assay: Inhibition of full length N-terminal his-tagged SIRT3 (unknown origin) deacetylation activity expressed in Escherichia coli BL21 (DE3) using RHKK-Ac-AMC as substrate incubated for 2 hrs by FDL analysis relative to control
T5 sequence (Q9NTG7 whole entry): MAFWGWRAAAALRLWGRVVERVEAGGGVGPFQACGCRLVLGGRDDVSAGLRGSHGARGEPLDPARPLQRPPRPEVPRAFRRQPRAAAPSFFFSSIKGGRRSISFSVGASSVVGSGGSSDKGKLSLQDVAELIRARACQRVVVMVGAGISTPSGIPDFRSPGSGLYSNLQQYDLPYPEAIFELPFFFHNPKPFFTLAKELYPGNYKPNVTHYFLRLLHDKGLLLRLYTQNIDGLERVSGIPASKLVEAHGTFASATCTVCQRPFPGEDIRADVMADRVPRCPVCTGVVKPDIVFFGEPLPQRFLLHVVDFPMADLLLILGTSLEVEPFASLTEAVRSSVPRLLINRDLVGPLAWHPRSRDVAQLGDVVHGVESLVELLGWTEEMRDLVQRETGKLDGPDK

NAD-dependent protein deacylase sirtuin-5, mitochondrial, sequence (Q9NXA8 whole entry): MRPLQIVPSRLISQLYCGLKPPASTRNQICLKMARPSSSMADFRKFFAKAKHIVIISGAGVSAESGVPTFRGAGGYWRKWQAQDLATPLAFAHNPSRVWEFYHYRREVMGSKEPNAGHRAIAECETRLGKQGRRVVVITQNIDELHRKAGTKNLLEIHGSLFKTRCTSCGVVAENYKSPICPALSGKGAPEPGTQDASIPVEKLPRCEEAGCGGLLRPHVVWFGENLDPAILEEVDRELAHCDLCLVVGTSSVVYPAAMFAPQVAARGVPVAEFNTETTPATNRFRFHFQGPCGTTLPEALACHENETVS

Row | pIC50 [1] | pIC50 [2] | pIC50 [3] | pIC50 [4] | pIC50 [5] | SMILES | pIC50 [6]
1 | < 3.30 | 3.51 | 3.80 | 3.56 | < 3.30 | N#Cc1ccc(Cn2c3ccc(Cl)cc3c3cc(C(=O)NCc4ccccn4)ncc32)cc1 | 
2 |  |  |  |  |  | COC(=O)c1cc2c(cn1)[nH]c1ccccc12 [BETA-CCM] | < 4.00
3 |  |  |  |  |  | CC(/C=C/C(=O)NO)=C\[C@@H](C)C(=O)c1ccc(N(C)C)cc1 [TRICHOSTATIN] | 5.10
